Literature values in paper PMC12375981 (Protein Science : A Publication of the Protein Society, 2025).
Marks after values point to notes of the source that are not given here.

How the values were obtained:
WT 3CL^pro = WT 3CL^pro (Severe acute respiratory syndrome coronavirus 2, UniProt P0DTD1); conditions: cited from earlier work
SARS‐CoV‐2 3CL^pro = conditions: cited from earlier work

| Structure (SMILES) | K D ^app (WT 3CL^pro) | increase of the strength of dimerization (SARS‐CoV‐2 3CL^pro) |
| --- | --- | --- |
| COc1cccc2[nH]c(C(=O)N[C@@H](CC(C)C)C(=O)N[C@@H](C[C@@H]3CCNC3=O)C(=O)COP(=O)(O)O)cc12 [lufotrelvir] | 17 ± 2 ^b nM | – |
| CC(C)(C)[C@H](NC(=O)C(F)(F)F)C(=O)N1C[C@H]2[C@@H]([C@H]1C(=O)N[C@H](C#N)C[C@@H]1CCNC1=O)C2(C)C [nirmatrelvir] | – | about seven |
